Measurements taken from patent US20250320224A1 (DOMAIN THERAPEUTICS, priority 2022, published 2025).
Structures can show the parent of a compound that is named as a salt.

Molecular target: T1, human PAR-2 (hPAR-2) receptor (Homo sapiens, UniProt P55085)
T1 construct: expressed in HEK-293 cells in an endogenous manner; endogenous in cells; host or cells: HEK-293
T1 sequence (P55085 26-397): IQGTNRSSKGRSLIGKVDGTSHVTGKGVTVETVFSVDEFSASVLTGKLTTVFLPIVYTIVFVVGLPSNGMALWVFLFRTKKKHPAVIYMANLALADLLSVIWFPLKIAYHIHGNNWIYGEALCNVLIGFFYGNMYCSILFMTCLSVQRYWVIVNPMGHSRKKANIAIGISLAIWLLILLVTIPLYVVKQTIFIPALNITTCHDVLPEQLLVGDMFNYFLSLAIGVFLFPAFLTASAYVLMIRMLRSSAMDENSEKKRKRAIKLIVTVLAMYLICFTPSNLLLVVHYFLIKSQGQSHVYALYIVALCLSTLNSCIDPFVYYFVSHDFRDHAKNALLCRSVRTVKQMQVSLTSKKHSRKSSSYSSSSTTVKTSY
Assay: In vitro human PAR-2 functional antagonist activity using calcium assays
Type: cell-based
Settings: hPAR-2 endogenously expressed in HEK-293 cells; stimulated by 2-Furoyl-LIGRLO-NH2 peptide; Fluo4AM intracellular calcium, FLIPR Tetra
Method in brief: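 Antagonism was measured as reduced calcium response to 2-Furoyl-LIGRLO-NH2 (dosed at its 80%-of-maximum concentration), recorded for 5 min. This followed a 10 min compound pre-incubation on Fluo4AM-loaded HEK-293 cells expressing native hPAR-2. Signals were normalised to buffer and agonist-alone controls.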

Row | SMILES | IC50
1 | CO[C@H]1CN(C(=O)c2ccc3c(n2)C(C)(C)CN3c2ccc(Cl)c(F)c2)CC[C@H]1CC(=O)O [Example 37, 2-((3R,4S)-1-(1-(4-chloro-3-fluorophenyl)-3,3-dimethyl-2,3-dihydro-1H-pyrrolo[3,2-b]pyridine-5-carbonyl)-3-methoxypiperidin-4-yl)acetic acid] | 500 to 10000 nM
2 | CC1(C)C(=O)NCCN1C(=O)c1ccc2c(n1)C1(CCCC1)C(=O)N2c1ccc(Cl)c(F)c1 [Example 2, 1′-(4-chloro-3-fluorophenyl)-5′-(2,2-dimethyl-3-oxopiperazine-1-carbonyl)spiro[cyclopentane-1,3′-pyrrolo[3,2-b]pyridin]-2′(1′H)-one] | 500 to 10000 nM
3 | CCN1CCN(C(=O)c2ccc3c(n2)C(C)(C)CN3c2ccc(Cl)c(F)c2)C(C)(C)C1 [Example 23, (1-(4-chloro-3-fluorophenyl)-3,3-dimethyl-2,3-dihydro-1H-pyrrolo[3,2-b]pyridin-5-yl)(4-ethyl-2,2-dimethylpiperazin-1-yl)methanone hydrochloride] | 500 to 10000 nM
4 | Cc1nc(N2CCN(C(=O)c3ccc4c(n3)C(C)(C)CN4c3ccc(Cl)c(F)c3)C(C)(C)C2)ncc1C(=O)O [Example 39, 2-(4-(1-(4-chloro-3-fluorophenyl)-3,3-dimethyl-2,3-dihydro-1H-pyrrolo[3,2-b]pyridine-5-carbonyl)-3,3-dimethylpiperazin-1-yl)-4-methylpyrimidine-5-carboxylic acid hydrochloride] | < 500 nM
5 | CC1(C)CN(c2ccc(Cl)c(F)c2)c2ccc(C(=O)N3CCN(c4nc(C(=O)N5CCC(O)CC5)cs4)CC3(C)C)nc21 [Example 81, (1-(4-chloro-3-fluorophenyl)-3,3-dimethyl-2,3-dihydro-1H-pyrrolo[3,2-b]pyridin-5-yl)(4-(4-(4-hydroxypiperidine-1-carbonyl)thiazol-2-yl)-2,2-dimethylpiperazin-1-yl)methanone] | < 500 nM
6 | CC1(C)C(=O)NCCN1C(=O)c1ccc2c(n1)C1(CCCC1)CN2c1cccc(Cl)c1 [Example 9, 4-(1′-(3-chlorophenyl)-1′,2′-dihydrospiro[cyclopentane-1,3′-pyrrolo[3,2-b]pyridine]-5′-carbonyl)-3,3-dimethylpiperazin-2-one] | < 500 nM
7 | Cc1ccc(N2CC(C)(C)c3nc(C(=O)N4CCN(c5cc(C)c(C(=O)O)c(C)n5)CC4(C)C)ccc32)cc1F [Example 85, 6-(4-(1-(3-fluoro-4-methylphenyl)-3,3-dimethyl-2,3-dihydro-1H-pyrrolo[3,2-b]pyridine-5-carbonyl)-3,3-dimethylpiperazin-1-yl)-2,4-dimethylnicotinic acid] | < 500 nM
8 | CC1(C)CN(C(=O)c2ccc3c(n2)C2(CCCC2)CN3c2ccc(Cl)c(F)c2)CCC1C(=O)O (stereo not drawn) [Example 6, 1-(1′-(4-chloro-3-fluorophenyl)-1′,2′-dihydrospiro[cyclopentane-1,3′-pyrrolo[3,2-b]pyridine]-5′-carbonyl)-3,3-dimethylpiperidine-4-carboxylic acid] | 500 to 10000 nM

Next, values leading:

Row | IC50 | SMILES
9 | < 500 nM | Cc1ccc(N2CC(C)(C)c3nc(C(=O)N4CCN(c5cc(C)c(C(=O)O)c(C)n5)CC4(C)C)cnc32)cc1F [Example 185, 6-(4-(5-(3-fluoro-4-methylphenyl)-7,7-dimethyl-6,7-dihydro-5H-pyrrolo[2,3-b]pyrazine-2-carbonyl)-3,3-dimethylpiperazin-1-yl)-2,4-dimethylnicotinic acid]
10 | < 500 nM | CCC1(CC)CN(c2ccc(Cl)c(F)c2)c2ccc(C(=O)N3CCN(c4ccc(CC(=O)O)cn4)CC3(C)C)nc21 [Example 148, 2-(6-(4-(1-(4-chloro-3-fluorophenyl)-3,3-diethyl-2,3-dihydro-1H-pyrrolo[3,2-b]pyridine-5-carbonyl)-3,3-dimethylpiperazin-1-yl)pyridin-3-yl)acetic acid]
11 | < 500 nM | CO[C@@H]1CCC2(C1)CN(c1ccc(Cl)c(F)c1)c1ccc(C(=O)N3CCN(c4cc(C)c(C(=O)O)c(C)n4)CC3(C)C)nc12 (stereo partly drawn) [Example 144, 6-(4-((3R)-1′-(4-chloro-3-fluorophenyl)-3-methoxy-1′,2′-dihydrospiro[cyclopentane-1,3′-pyrrolo[3,2-b]pyridine]-5′-carbonyl)-3,3-dimethylpiperazin-1-yl)-2,4-dimethylnicotinic acid]
12 | 500 to 10000 nM | CCCCCCCCCCCCCCCC(=O)N(C)CCN(C)C(=O)CCOCCOCCOCCNC(=O)CCOCCOCCOCCNC(=O)CCCCCCC(=O)N1CCN(C(=O)c2cnc3c(n2)C2(CN3c3ccc(Cl)c(F)c3)CC(C)(C)C2)C(C)(C)C1 [Example 261, N-(37-(4-(5′-(4-chloro-3-fluorophenyl)-3,3-dimethyl-5′,6′-dihydrospiro[cyclobutane-1,7′-pyrrolo[2,3-b]pyrazine]-2′-carbonyl)-3,3-dimethylpiperazin-1-yl)-3-methyl-4,17,30,37-tetraoxo-7,10,13,20,23,26-hexaoxa-3,16,29-triazaheptatriacontyl)-N-methylpalmitamide]
13 | < 500 nM | COC(=O)CCCCCCC(=O)N1CCN(C(=O)c2cnc3c(n2)C2(CN3c3ccc(Cl)c(F)c3)CC(C)(C)C2)C(C)(C)C1 [Example 259, methyl 8-(4-(5′-(4-chloro-3-fluorophenyl)-3,3-dimethyl-5′,6′-dihydrospiro[cyclobutane-1,7′-pyrrolo[2,3-b]pyrazine]-2′-carbonyl)-3,3-dimethylpiperazin-1-yl)-8-oxooctanoate]
14 | 500 to 10000 nM | CC(C)CN1CC(C)(c2ccc(Cl)c(F)c2)c2ccc(C(=O)N3CCN(c4ccc(CC(=O)O)cn4)CC3(C)C)nc21 (stereo not drawn) [Example 257, 2-(6-(4-(3-(4-chloro-3-fluorophenyl)-1-isobutyl-3-methyl-2,3-dihydro-1H-pyrrolo[2,3-b]pyridine-6-carbonyl)-3,3-dimethylpiperazin-1-yl)pyridin-3-yl)acetic acid]
15 | < 500 nM | CC(C(=O)O)c1ccc(N2CCN(C(=O)c3ccc4c(n3)C(C)(C)CN4c3ccc(Cl)c(F)c3)C(C)(C)C2)nc1 (stereo not drawn) [Example 160, 2-(6-(4-(1-(4-chloro-3-fluorophenyl)-3,3-dimethyl-2,3-dihydro-1H-pyrrolo[3,2-b]pyridine-5-carbonyl)-3,3-dimethylpiperazin-1-yl)pyridin-3-yl)propanoic acid]
16 | < 500 nM | Cc1cc(N2CCN(C(=O)c3ccc4c(n3)C3(CN4c4ccc(Cl)c(F)c4)CC(C)(C)C3)C(C)(C)C2)nc(C)c1C(=O)O [Example 215, 6-(4-(1′-(4-chloro-3-fluorophenyl)-3,3-dimethyl-1′,2′-dihydrospiro[cyclobutane-1,3′-pyrrolo[3,2-b]pyridine]-5′-carbonyl)-3,3-dimethylpiperazin-1-yl)-2,4-dimethylnicotinic acid]
17 | < 500 nM | Cc1cc(N2CCN(C(=O)c3ccc4c(n3)C3(CN4c4ccc(Cl)c(F)c4)CC(F)(F)C3)C(C)(C)C2)nc(C)c1C(=O)O [Example 89, 6-(4-(1′-(4-chloro-3-fluorophenyl)-3,3-difluoro-1′,2′-dihydrospiro[cyclobutane-1,3′-pyrrolo[3,2-b]pyridine]-5′-carbonyl)-3,3-dimethylpiperazin-1-yl)-2,4-dimethylnicotinic acid]
18 | < 500 nM | CC1(C)CN(c2ccc(C(F)(F)F)c(Cl)c2)c2ncc(C(=O)N3CCN(c4ccc(CC(=O)O)cn4)CC3(C)C)nc21 [Example 219, 2-(6-(4-(5-(3-chloro-4-(trifluoromethyl)phenyl)-7,7-dimethyl-6,7-dihydro-5H-pyrrolo[2,3-b]pyrazine-2-carbonyl)-3,3-dimethylpiperazin-1-yl)pyridin-3-yl)acetic acid]
